Experiments:
Experiment in all cases: Kinase Hotspot radiolabel assay
Format in all cases: biochemical
Conditions in all cases: read-out: % Residual Activity
CDK14/cyclin Y (PFTK1) = molecular target: T1, CDK14/cyclin Y (PFTK1) (Homo sapiens, UniProt O94921)
T1 construct: purchased Reaction Biology Corporation (Kinase HotSpot)
Method in brief: (§1)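 Specificity was assessed across 369 kinases in a radioactive Hotspot assay, testing one compound concentration (1 µM). For any kinase inhibited above 90%, a Ki value was subsequently obtained.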

STK25/YSK1 = molecular target: T2, STK25/YSK1 (Homo sapiens, UniProt O00506)
T2 construct: purchased Reaction Biology Corporation (Kinase HotSpot)
Method in brief: as §1

IR = molecular target: T3, IR (Homo sapiens, UniProt P06213)
T3 construct: purchased Reaction Biology Corporation (Kinase HotSpot)
Method in brief: as §1

JAK2 = molecular target: T4, JAK2 (Homo sapiens, UniProt O60674)
T4 construct: purchased Reaction Biology Corporation (Kinase HotSpot)
Method in brief: as §1

p70S6Kb/RPS6KB2 = molecular target: T5, p70S6Kb/RPS6KB2 (Homo sapiens, UniProt Q9UBS0)
T5 construct: purchased Reaction Biology Corporation (Kinase HotSpot)
Method in brief: as §1

TESK1 = molecular target: T6, TESK1 (Homo sapiens, UniProt Q15569)
T6 construct: purchased Reaction Biology Corporation (Kinase HotSpot)
Method in brief: as §1

AXL = molecular target: T7, AXL (Homo sapiens, UniProt P30530)
T7 construct: purchased Reaction Biology Corporation (Kinase HotSpot)
Method in brief: as §1

LIMK1 = molecular target: T8, LIMK1 (Homo sapiens, UniProt P53667)
T8 construct: purchased Reaction Biology Corporation (Kinase HotSpot)
Method in brief: as §1

PKG2/PRKG2 = molecular target: T9, PKG2/PRKG2 (Homo sapiens, UniProt Q13237)
T9 construct: purchased Reaction Biology Corporation (Kinase HotSpot)
Method in brief: as §1

ROCK2 = molecular target: T10, ROCK2 (Homo sapiens, UniProt O75116)
T10 construct: purchased Reaction Biology Corporation (Kinase HotSpot)
Method in brief: as §1

JNK2 = molecular target: T11, JNK2 (Homo sapiens, UniProt P45984)
T11 construct: purchased Reaction Biology Corporation (Kinase HotSpot)
Method in brief: as §1

SSTK/TSSK6 = molecular target: T12, SSTK/TSSK6 (Homo sapiens, UniProt Q9BXA6)
T12 construct: purchased Reaction Biology Corporation (Kinase HotSpot)
Method in brief: as §1

FYN = molecular target: T13, FYN (Homo sapiens, UniProt P06241)
T13 construct: purchased Reaction Biology Corporation (Kinase HotSpot)
Method in brief: as §1

NEK11 = molecular target: T14, NEK11 (Homo sapiens, UniProt Q8NG66)
T14 construct: purchased Reaction Biology Corporation (Kinase HotSpot)
Method in brief: as §1

LYN = molecular target: T15, LYN (Homo sapiens, UniProt P07948)
T15 construct: purchased Reaction Biology Corporation (Kinase HotSpot)
Method in brief: as §1

ARK5/NUAK1 = molecular target: T16, ARK5/NUAK1 (Homo sapiens, UniProt O60285)
T16 construct: purchased Reaction Biology Corporation (Kinase HotSpot)
Method in brief: as §1

CAMK1d = molecular target: T17, CAMK1d (Homo sapiens, UniProt Q8IU85)
T17 construct: purchased Reaction Biology Corporation (Kinase HotSpot)
Method in brief: as §1

GRK7 = molecular target: T18, GRK7 (Homo sapiens, UniProt Q8WTQ7)
T18 construct: purchased Reaction Biology Corporation (Kinase HotSpot)
Method in brief: as §1

NEK2 = molecular target: T19, NEK2 (Homo sapiens, UniProt P51955)
T19 construct: purchased Reaction Biology Corporation (Kinase HotSpot)
Method in brief: as §1

MYLK4 = molecular target: T20, MYLK4 (Homo sapiens, UniProt Q86YV6)
T20 construct: purchased Reaction Biology Corporation (Kinase HotSpot)
Method in brief: as §1

WNK1 = molecular target: T21, WNK1 (Homo sapiens, UniProt Q9H4A3)
T21 construct: purchased Reaction Biology Corporation (Kinase HotSpot)
Method in brief: as §1

EPHB4 = molecular target: T22, EPHB4 (Homo sapiens, UniProt P54760)
T22 construct: purchased Reaction Biology Corporation (Kinase HotSpot)
Method in brief: as §1

TNIK = molecular target: T23, TNIK (Homo sapiens, UniProt Q9UKE5)
T23 construct: purchased Reaction Biology Corporation (Kinase HotSpot)
Method in brief: as §1

CAMKK1 = molecular target: T24, CAMKK1 (Homo sapiens, UniProt Q8N5S9)
T24 construct: purchased Reaction Biology Corporation (Kinase HotSpot)
Method in brief: as §1

LYN B = molecular target: T25, LYN B (Homo sapiens, UniProt P07948)
T25 construct: purchased Reaction Biology Corporation (Kinase HotSpot)
Method in brief: as §1

MARK2/PAR-1Ba = molecular target: T26, MARK2/PAR-1Ba (Homo sapiens, UniProt Q7KZI7)
T26 construct: purchased Reaction Biology Corporation (Kinase HotSpot)
Method in brief: as §1

SGK3/SGKL = molecular target: T27, SGK3/SGKL (Homo sapiens, UniProt Q96BR1)
T27 construct: purchased Reaction Biology Corporation (Kinase HotSpot)
Method in brief: as §1

FRK/PTK5 = molecular target: T28, FRK/PTK5 (Homo sapiens, UniProt P42685)
T28 construct: purchased Reaction Biology Corporation (Kinase HotSpot)
Method in brief: as §1

CDK5/p35 = molecular target: T29, CDK5/p35 (Homo sapiens, UniProt Q00535)
T29 construct: purchased Reaction Biology Corporation (Kinase HotSpot)
Method in brief: as §1

HIPK3 = molecular target: T30, HIPK3 (Homo sapiens, UniProt Q9H422)
T30 construct: purchased Reaction Biology Corporation (Kinase HotSpot)
Method in brief: as §1

T13 sequence (P06241 whole entry): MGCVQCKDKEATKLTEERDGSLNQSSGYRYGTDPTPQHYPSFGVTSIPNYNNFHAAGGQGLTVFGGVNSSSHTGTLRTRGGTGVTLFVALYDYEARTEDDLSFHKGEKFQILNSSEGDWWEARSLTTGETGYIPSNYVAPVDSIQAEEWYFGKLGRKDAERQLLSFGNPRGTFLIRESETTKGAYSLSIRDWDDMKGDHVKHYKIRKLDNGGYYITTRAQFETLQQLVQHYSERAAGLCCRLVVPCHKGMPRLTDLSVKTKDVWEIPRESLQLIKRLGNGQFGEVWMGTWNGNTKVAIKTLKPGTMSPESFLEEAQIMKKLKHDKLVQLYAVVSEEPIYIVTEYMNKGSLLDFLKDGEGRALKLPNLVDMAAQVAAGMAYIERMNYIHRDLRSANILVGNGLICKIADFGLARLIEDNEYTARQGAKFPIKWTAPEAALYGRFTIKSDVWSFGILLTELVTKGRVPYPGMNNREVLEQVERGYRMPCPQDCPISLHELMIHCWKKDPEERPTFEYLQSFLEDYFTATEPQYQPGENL
T17 sequence (Q8IU85 whole entry): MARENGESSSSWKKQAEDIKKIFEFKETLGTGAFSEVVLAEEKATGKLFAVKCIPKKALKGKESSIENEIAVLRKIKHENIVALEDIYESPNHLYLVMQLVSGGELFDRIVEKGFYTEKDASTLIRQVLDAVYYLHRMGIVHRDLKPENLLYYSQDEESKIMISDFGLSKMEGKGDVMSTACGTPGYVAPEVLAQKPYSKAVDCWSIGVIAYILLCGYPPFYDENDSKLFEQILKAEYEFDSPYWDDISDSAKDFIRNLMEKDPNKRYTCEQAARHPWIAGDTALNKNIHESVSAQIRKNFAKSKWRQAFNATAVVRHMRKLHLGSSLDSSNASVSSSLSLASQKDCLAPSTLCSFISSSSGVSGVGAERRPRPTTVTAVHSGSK
T6 sequence (Q15569 whole entry): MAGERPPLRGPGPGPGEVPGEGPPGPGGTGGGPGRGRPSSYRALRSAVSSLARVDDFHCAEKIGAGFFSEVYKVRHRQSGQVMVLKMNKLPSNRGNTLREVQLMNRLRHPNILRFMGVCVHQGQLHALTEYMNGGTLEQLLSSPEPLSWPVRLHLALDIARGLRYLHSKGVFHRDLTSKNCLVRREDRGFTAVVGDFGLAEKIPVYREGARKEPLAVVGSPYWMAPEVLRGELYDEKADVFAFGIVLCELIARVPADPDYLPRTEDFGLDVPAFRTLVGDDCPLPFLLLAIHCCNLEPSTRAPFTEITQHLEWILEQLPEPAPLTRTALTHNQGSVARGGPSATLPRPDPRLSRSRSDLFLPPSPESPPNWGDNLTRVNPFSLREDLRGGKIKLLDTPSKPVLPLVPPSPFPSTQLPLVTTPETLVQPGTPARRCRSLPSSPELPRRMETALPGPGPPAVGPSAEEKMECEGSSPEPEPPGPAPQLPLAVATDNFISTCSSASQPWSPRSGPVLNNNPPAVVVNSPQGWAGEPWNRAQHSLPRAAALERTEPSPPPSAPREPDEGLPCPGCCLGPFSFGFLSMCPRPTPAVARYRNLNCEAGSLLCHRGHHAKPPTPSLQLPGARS
T4 sequence (O60674 whole entry): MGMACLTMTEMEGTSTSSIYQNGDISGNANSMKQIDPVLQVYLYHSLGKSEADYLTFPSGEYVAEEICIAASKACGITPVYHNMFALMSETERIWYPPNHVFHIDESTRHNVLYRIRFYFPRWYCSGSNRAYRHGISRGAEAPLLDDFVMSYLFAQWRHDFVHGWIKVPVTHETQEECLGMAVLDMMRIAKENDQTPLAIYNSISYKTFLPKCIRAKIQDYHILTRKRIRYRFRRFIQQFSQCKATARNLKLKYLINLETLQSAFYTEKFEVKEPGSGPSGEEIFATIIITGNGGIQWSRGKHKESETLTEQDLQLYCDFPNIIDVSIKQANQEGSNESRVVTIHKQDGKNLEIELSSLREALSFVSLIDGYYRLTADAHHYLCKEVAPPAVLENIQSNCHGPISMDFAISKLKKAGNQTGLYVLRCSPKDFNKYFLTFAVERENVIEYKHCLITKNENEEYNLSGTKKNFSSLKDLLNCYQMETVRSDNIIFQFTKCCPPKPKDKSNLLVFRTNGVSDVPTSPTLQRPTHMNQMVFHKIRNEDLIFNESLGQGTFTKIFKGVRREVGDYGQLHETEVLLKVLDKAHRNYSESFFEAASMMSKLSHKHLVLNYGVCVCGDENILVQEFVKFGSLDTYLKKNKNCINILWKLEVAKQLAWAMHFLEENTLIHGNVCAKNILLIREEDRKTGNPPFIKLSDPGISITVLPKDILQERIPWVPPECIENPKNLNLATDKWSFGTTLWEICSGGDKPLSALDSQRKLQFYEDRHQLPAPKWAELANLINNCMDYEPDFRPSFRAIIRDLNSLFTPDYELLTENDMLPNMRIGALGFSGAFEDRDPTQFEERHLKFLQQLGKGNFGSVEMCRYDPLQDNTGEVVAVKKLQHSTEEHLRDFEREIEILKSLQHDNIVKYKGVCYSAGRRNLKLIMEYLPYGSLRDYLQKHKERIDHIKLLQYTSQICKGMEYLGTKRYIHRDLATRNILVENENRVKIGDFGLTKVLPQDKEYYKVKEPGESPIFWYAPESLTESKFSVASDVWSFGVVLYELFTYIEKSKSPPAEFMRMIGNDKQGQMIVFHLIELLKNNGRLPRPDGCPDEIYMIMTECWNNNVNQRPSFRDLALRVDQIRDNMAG
T14 sequence (Q8NG66 whole entry): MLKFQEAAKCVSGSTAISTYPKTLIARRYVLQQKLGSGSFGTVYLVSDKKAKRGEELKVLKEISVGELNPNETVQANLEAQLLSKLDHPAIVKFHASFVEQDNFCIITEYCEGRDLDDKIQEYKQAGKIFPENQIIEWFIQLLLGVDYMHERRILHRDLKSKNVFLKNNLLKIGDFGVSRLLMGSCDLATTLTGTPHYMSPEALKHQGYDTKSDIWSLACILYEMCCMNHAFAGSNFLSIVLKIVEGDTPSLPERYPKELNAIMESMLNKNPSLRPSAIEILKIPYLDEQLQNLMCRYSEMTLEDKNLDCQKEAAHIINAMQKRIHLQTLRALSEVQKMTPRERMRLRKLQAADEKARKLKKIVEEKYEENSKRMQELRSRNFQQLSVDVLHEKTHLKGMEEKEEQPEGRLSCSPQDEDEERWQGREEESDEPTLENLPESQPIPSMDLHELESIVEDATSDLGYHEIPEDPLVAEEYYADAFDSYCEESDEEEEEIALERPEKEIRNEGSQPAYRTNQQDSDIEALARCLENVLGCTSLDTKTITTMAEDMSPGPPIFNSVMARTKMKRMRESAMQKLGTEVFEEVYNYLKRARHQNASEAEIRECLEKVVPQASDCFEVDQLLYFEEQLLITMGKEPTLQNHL
T5 sequence (Q9UBS0 whole entry): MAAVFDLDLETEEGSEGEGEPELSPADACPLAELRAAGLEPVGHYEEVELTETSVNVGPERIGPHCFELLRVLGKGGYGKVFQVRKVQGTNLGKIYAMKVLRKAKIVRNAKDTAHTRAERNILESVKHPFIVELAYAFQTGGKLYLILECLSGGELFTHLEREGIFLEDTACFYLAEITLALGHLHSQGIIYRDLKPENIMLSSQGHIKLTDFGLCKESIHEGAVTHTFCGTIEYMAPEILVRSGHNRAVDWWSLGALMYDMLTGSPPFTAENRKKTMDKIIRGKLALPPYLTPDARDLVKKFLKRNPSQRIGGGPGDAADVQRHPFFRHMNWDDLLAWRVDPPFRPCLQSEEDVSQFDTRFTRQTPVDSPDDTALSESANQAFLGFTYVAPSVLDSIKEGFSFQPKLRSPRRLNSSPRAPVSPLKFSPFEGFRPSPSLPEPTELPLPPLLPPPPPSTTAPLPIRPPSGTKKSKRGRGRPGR
T18 sequence (Q8WTQ7 whole entry): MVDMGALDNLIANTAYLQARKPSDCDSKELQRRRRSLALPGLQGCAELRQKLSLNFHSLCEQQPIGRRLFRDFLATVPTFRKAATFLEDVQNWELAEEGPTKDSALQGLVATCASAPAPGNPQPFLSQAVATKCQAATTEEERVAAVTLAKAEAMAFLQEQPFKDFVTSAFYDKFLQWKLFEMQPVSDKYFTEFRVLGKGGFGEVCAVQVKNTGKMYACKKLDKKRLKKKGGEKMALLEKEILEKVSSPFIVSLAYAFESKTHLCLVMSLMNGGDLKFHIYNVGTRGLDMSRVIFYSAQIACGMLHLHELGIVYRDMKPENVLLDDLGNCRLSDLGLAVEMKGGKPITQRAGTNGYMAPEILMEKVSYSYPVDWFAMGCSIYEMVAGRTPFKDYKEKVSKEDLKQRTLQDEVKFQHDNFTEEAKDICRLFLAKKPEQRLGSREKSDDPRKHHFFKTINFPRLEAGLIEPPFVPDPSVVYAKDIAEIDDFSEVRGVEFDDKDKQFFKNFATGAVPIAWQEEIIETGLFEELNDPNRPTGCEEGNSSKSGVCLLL
T15 sequence (P07948 whole entry): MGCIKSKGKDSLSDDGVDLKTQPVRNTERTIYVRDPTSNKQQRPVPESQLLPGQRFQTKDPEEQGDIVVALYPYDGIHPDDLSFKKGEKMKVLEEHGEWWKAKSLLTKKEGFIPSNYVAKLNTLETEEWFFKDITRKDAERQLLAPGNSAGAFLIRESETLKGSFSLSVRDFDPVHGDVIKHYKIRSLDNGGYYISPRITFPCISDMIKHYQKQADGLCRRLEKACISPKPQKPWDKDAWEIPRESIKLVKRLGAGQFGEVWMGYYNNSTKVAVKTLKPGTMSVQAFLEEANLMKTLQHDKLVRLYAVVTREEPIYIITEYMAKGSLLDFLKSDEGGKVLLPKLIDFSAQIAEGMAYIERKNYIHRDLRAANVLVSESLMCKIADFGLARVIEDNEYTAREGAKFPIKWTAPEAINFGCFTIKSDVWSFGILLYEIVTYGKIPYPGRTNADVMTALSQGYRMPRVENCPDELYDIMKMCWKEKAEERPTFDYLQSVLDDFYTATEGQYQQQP

Cc1cnc(N[C@H]2CC[C@H](N)CC2)nc1-c1cnc2ccc(-c3ccccc3)cn12 [CDDD11-8]
remaining activity at 1 µM (CDK14/cyclin Y (PFTK1)): 68.8%
remaining activity at 1 µM (STK25/YSK1): 97.2%
remaining activity at 1 µM (IR): 101%
remaining activity at 1 µM (JAK2): 70%
remaining activity at 1 µM (p70S6Kb/RPS6KB2): 98.6%
remaining activity at 1 µM (TESK1): 113%
remaining activity at 1 µM (AXL): 44.4%
remaining activity at 1 µM (LIMK1): 12.9%
remaining activity at 1 µM (PKG2/PRKG2): 87%
remaining activity at 1 µM (ROCK2): 88.9%
remaining activity at 1 µM (JNK2): 103%
remaining activity at 1 µM (SSTK/TSSK6): 79.1%
remaining activity at 1 µM (FYN): 63.2%
remaining activity at 1 µM (NEK11): 100%
remaining activity at 1 µM (LYN): 65.5%
remaining activity at 1 µM (ARK5/NUAK1): 7.93%
remaining activity at 1 µM (CAMK1d): 87.1%
remaining activity at 1 µM (GRK7): 70.7%
remaining activity at 1 µM (NEK2): 90.7%
remaining activity at 1 µM (MYLK4): 11.5%
remaining activity at 1 µM (WNK1): 90%
remaining activity at 1 µM (EPHB4): 81%
remaining activity at 1 µM (TNIK): 4.38%
remaining activity at 1 µM (CAMKK1): 76.5%
remaining activity at 1 µM (LYN B): 88.5%
remaining activity at 1 µM (MARK2/PAR-1Ba): 23.1%
remaining activity at 1 µM (SGK3/SGKL): 115%
remaining activity at 1 µM (FRK/PTK5): 97.1%
remaining activity at 1 µM (CDK5/p35): 84.5%
remaining activity at 1 µM (HIPK3): 125%
